From patent publication US4103025A, “Novel terpenes” (Inverni Della Beffa S.p.A., priority 1974, dated 1978)

Legend:
Experimental wounds = assay: Cicatrizing activity upon experimental wounds in rats (method of Morton & Malone); type: in vivo; details: for Healing activity compared with the controls: especially in the first days of treatment; for Percentage remargination (Average ± S.D.), Day I / Percentage remargination (Average ± S.D.), Day II / Percentage remargination (Average ± S.D.), Day III / Percentage remargination (Average ± S.D.), Day V / Percentage remargination (Average ± S.D.), Day VI: topical 10% suspension in 2% CMC, 0.1 ml/rat/day; for Percentage remargination (Average ± S.D.), Day I: control 5.2 ± 1.1; for Percentage remargination (Average ± S.D.), Day II: control 12.8 ± 1.5; for Percentage remargination (Average ± S.D.), Day III: control 21.9 ± 3.1; for Percentage remargination (Average ± S.D.), Day V: control 39.63 ± 2.3; for Percentage remargination (Average ± S.D.), Day VI: control 57.4 ± 2.1
Protocol: Cicatrizing Activity Upon Experimental Wounds in Rats
The cicatrizing activity of sericic acid and sericoside upon experimental wounds was determined on rats in accordance with the method of Morton & Malone (Arch. Int. Pharmacodyn. Ther. 196, 117, 1972).
The treatment of the wounds was effected with a 10% suspension of the active principles in water containing 2% carboxymethyl cellulose (CMC). The suspensions were used in doses of 0.1 ml. for each application, one treatment being effected per day.
Note: Topical treatment effected on each of the days on which measurement
were taken (I, II, III, V, and VI).

[1] = LD50 in mice (intraperitoneal); details: mouse, in vivo, ip, intraperitoneal administration
Description: The LD50 in mice (as determined with intraperitoneal administration) for sericic acid and sericoside was as follows: […]

[2] = tested on: Ultra-violet ray erythema; assay: Activity against ultra-violet ray erythema in guinea pigs (method of Winder et al.); type: in vivo, male albino guinea pigs; details: for Erythema Score, 2 h / Erythema Score, 4 h / Erythema Score, 6 h / Erythema Score, 8 h / Erythema Score, 22 h: 5% gel (200 mg) one hour prior to irradiation; for Erythema Score, 2 h: 0 = no erythema, 0.5 = moderate reddening, 1 = marked reddening, 2 = obvious erythema, controls 1.15 ± 0.17; for Erythema Score, 4 h: controls 2.40 ± 0.30; for Erythema Score, 6 h: controls 2.55 ± 0.34; for Erythema Score, 8 h: controls 2.35 ± 0.18; for Erythema Score, 22 h: controls 1.05 ± 0.23; for Percentage inhibition of erythema compared with the controls, 2 h / Percentage inhibition of erythema compared with the controls, 4 h / Percentage inhibition of erythema compared with the controls, 6 h / Percentage inhibition of erythema compared with the controls, 8 h / Percentage inhibition of erythema compared with the controls, 22 h: 5% gel (200 mg), in parentheses
Protocol: Activity Against Ultra-Violet Ray Erythema
Ultra-violet ray erythema in guinea pigs was effected in accordance with the method of Winder et al. (Arch. Int. Pharmacodyn, 106, 261, 1968).
Sericoside and sericic acid were applied to the depilated skin of male albino guinea pigs (average weight 300 - 400 g) in the form of a 5% gel (using 200 mg. thereof) one hour prior to irradiation. The animals were depilated 18 hours prior to the irradiation and irradiated for 3 minutes with a 500 W. mercury vapor lamp at a distance of 18 cms.

[3] = tested on: Carragenin-induced oedema; assay: Anti-inflammatory activity against carragenin-induced oedema in rats, intraperitoneal administration; type: in vivo; details: for Volume of the oedema (Average ± S.D.): maximum volume after 3 hours
Protocol: (§1) Anti-inflammatory Activity Against Carragenin-induced Oedema in Rats
(§2) The anti-inflammatory activities of sericoside and sericic acid were determined by measuring the extent to which the oedema caused by sub-plantar administration of carragenin to rats could be inhibited by prior oral and intraperitoneal administration of the substances.
(1) Administration endoperitoneally 30 minutes prior to the injection of
(2) Maximum volume measured after 3 hours.

[4] = Relative solubility in chlorinated hydrocarbon and aqueous solvents; type: physicochemical; details: chlorinated hydrocarbon solvents versus water/aqueous solvents
[5] = tested on: Gastric ulcer induced by Shay's method; assay: Anti-ulcer activity - gastric ulcer in rats induced by Shay's method; type: in vivo; details: for Diminution of the ulcer index compared with the controls: 200 mg/kg orally five times; for Number of ulcers of class I / Number of ulcers of class II / Number of ulcers of class III / Number of ulcers of class IV / Number of ulcers of class V: 13 animals; for Percentage ulcer variation in relation to controls: Table 1; for Ulcer Index: controls 75; for Product of the number of ulcers and the numerical value attributed to the class, class I / Product of the number of ulcers and the numerical value attributed to the class, class II / Product of the number of ulcers and the numerical value attributed to the class, class III / Product of the number of ulcers and the numerical value attributed to the class, class IV / Product of the number of ulcers and the numerical value attributed to the class, class V: in parentheses
Protocol: Anti-ulcer activity - Gastric Ulcer in the rats induced by Shay's method
The anti-ulcer activity of sericic acid and sericoside was determined by administering the compounds to rats in which gastric ulcers were induced by Shay's method. The compounds were administered at the dose of 200 mg./kg. orally five times, at 42, 30, 25 and 6 hours before tying of the pylorus and immediately after the operation and as shown in Table 1 diminished the ulcer index by 48 and 45 per cent respectively, compared with the controls.
^(1) Doses administered orally 5 times, 42, 30, 25 and 6 hours prior
to and immediately after the tying of the pylorus.
^(2) In parentheses the product of the number of ulcers and the
numerical value attributed to the individual classes according to the
individual classes according to the evaluation criterion of T. O.
Keyrilainen and M. K. Paasonen (Acta Pharmacol. et. Toxicol. 13, 22, 1957

[6] = tested on: Carragenin-induced oedema; assay: Anti-inflammatory activity against carragenin-induced oedema in rats, oral administration; type: in vivo; details: 200 mg/kg orally for 3 days; for Percentage inhibition of the oedema: 3 hours after carragenin; for Volume of oedema (Average ± S.D.): maximum volume 3 hours after carragenin, controls 0.30 ± 0.005
Protocol: as §1, §2
^(1) Doses administered orally for 3 days; on the third day the
administration was effected two hours before the subplantar injection of
^(2) Maximum volume of the oedema measured 3 hours after the
subplantar injection of carragenin.

[7] = 50 mg/kg endoperitoneally 30 minutes prior to carragenin
[8] = 50 mg/kg endoperitoneally 30 minutes prior to carragenin, controls 0.31 ± 0.006
[9] = 100 mg/kg endoperitoneally 30 minutes prior to carragenin

| Compound | Healing activity compared with the controls (Experimental wounds) | Percentage remargination (Average ± S.D.), Day I (Experimental wounds) | Percentage remargination (Average ± S.D.), Day II (Experimental wounds) | Percentage remargination (Average ± S.D.), Day III (Experimental wounds) | Percentage remargination (Average ± S.D.), Day V (Experimental wounds) | Percentage remargination (Average ± S.D.), Day VI (Experimental wounds) | LD50 [1] | Erythema Score, 2 h [2] | Erythema Score, 4 h [2] | Erythema Score, 6 h [2] | Erythema Score, 8 h [2] | Erythema Score, 22 h [2] | Percentage inhibition of erythema compared with the controls, 2 h [2] | Percentage inhibition of erythema compared with the controls, 4 h [2] | Percentage inhibition of erythema compared with the controls, 6 h [2] | Percentage inhibition of erythema compared with the controls, 8 h [2] | Percentage inhibition of erythema compared with the controls, 22 h [2] | Percentage inhibition of the oedema [3, 7] | Volume of the oedema (Average ± S.D.) [3, 8] | Percentage inhibition of the oedema [3, 9] | also measured |
| --- | --- | --- | --- | --- | --- | --- | --- | --- | --- | --- | --- | --- | --- | --- | --- | --- | --- | --- | --- | --- | --- |
| CC1(C)CC[C@]2(C(=O)O)CC[C@]3(C)C(=CC[C@@H]4[C@@]5(C)C[C@@H](O)[C@H](O)[C@](C)(CO)[C@@H]5CC[C@]43C)[C@@H]2[C@@H]1O | significant healing activity | 10.4 ± 1.3% | 23.7 ± 2.3% | 36.9 ± 2.7% | 48.00 ± 1.5% | 59.0 ± 2.2% | > 1000 mg/kg | 0.95 ± 0.12 | 1.80 ± 0.21 | 2.05 ± 0.22 | 1.35 ± 0.18 | 0.60 ± 0.10 | 17.4% | 25% | 19.6% | 42.5% | 42.8% | 25% | 0.23 ± 0.008 mL | 64% | Volume of the oedema (Average ± S.D.) ([3]; 100 mg/kg endoperitoneally 30 minutes prior to carragenin, controls 0.31 ± 0.010): 0.11 ± 0.006 mL; Relative solubility [4]: generally more soluble in chlorinated hydrocarbon solvents than in water; Diminution of the ulcer index compared with the controls [5]: 48 per cent; Number of ulcers of class I ([5]; 200 mg/kg orally, 5 times): 279; Number of ulcers of class II ([5]; 200 mg/kg orally, 5 times): 12; Number of ulcers of class III ([5]; 200 mg/kg orally, 5 times): 3; Number of ulcers of class IV ([5]; 200 mg/kg orally, 5 times): 2; Number of ulcers of class V ([5]; 200 mg/kg orally, 5 times): 9; Percentage ulcer variation in relation to controls ([5]; 200 mg/kg orally, 5 times): -45%; Ulcer Index ([5]; 200 mg/kg orally, 5 times): 45; Product of the number of ulcers and the numerical value attributed to the class, class I ([5]; 200 mg/kg orally, 5 times): 279; Product of the number of ulcers and the numerical value attributed to the class, class II ([5]; 200 mg/kg orally, 5 times): 60; Product of the number of ulcers and the numerical value attributed to the class, class III ([5]; 200 mg/kg orally, 5 times): 30; Product of the number of ulcers and the numerical value attributed to the class, class IV ([5]; 200 mg/kg orally, 5 times): 40; Product of the number of ulcers and the numerical value attributed to the class, class V ([5]; 200 mg/kg orally, 5 times): 180; Percentage inhibition of the oedema [6]: 23%; Volume of oedema (Average ± S.D.) [6]: 0.23 ± 0.009 mL |
| CC1(C)CC[C@]2(C(=O)OC3O[C@H](CO)[C@@H](O)[C@H](O)[C@H]3O)CC[C@]3(C)C(=CC[C@@H]4[C@@]5(C)C[C@@H](O)[C@H](O)[C@](C)(CO)[C@@H]5CC[C@]43C)[C@@H]2[C@@H]1O (some centres unmarked) | significant healing activity | 13.9 ± 1.4% | 23.7 ± 1.5% | 36.8 ± 2.0% | 53.30 ± 2.8% | 68.2 ± 2.1% | > 1000 mg/kg | 0.75 ± 0.17 | 1.70 ± 0.23 | 1.95 ± 0.22 | 1.30 ± 0.25 | 0.70 ± 0.15 | 34.8% | 29.2% | 23.5% | 44.7% | 33.3% | 35% | 0.20 ± 0.005 mL | 67% | Relative solubility [4]: generally more soluble in aqueous solvents than chlorinated hydrocarbons; Diminution of the ulcer index compared with the controls [5]: 45 per cent; Number of non-ulcerated stomachs (per cent) ([5]; 200 mg/kg orally, 5 times): 7.6 per cent; Number of ulcers of class I ([5]; 200 mg/kg orally, 5 times): 369; Number of ulcers of class II ([5]; 200 mg/kg orally, 5 times): 15; Number of ulcers of class III ([5]; 200 mg/kg orally, 5 times): 1; Number of ulcers of class IV ([5]; 200 mg/kg orally, 5 times): 0; Number of ulcers of class V ([5]; 200 mg/kg orally, 5 times): 3; Percentage ulcer variation in relation to controls ([5]; 200 mg/kg orally, 5 times): -48%; Ulcer Index ([5]; 200 mg/kg orally, 5 times): 39.5; Product of the number of ulcers and the numerical value attributed to the class, class I ([5]; 200 mg/kg orally, 5 times): 369; Product of the number of ulcers and the numerical value attributed to the class, class II ([5]; 200 mg/kg orally, 5 times): 75; Product of the number of ulcers and the numerical value attributed to the class, class III ([5]; 200 mg/kg orally, 5 times): 10; Product of the number of ulcers and the numerical value attributed to the class, class IV ([5]; 200 mg/kg orally, 5 times): 0; Product of the number of ulcers and the numerical value attributed to the class, class V ([5]; 200 mg/kg orally, 5 times): 60; Percentage inhibition of the oedema [6]: 26%; Volume of oedema (Average ± S.D.) [6]: 0.22 ± 0.010 mL |
